Experimental data reported in paper PMC8819907 (Journal of Experimental & Clinical Cancer Research : CR, 2022).
Entries after “also recorded” stand apart in the source; their conditions may differ. Like-named read-outs stand apart in the source and are kept apart here.

Tests used:
[1] = dose normalized to 2 mg
[2] = trametinib and its metabolites; cited from earlier work
[3] = cited from earlier work
MEK1 = test system: MEK1; set-up: method as in ref 17 (a number printed in a supplementary file, which may have a reference list of its own: not looked up in the article's list); conditions: read-out: IC50 against MEK1; cited from earlier work
[4] = test system: RAF-mediated MEK1 activation; set-up: method as in ref 19 (a number printed in a supplementary file, which may have a reference list of its own: not looked up in the article's list); conditions: read-out: IC50, inhibition of RAF-mediated MEK1 activation; cited from earlier work
pMEK1 kinase activity = target: pMEK1 kinase activity; set-up: method as in ref 19 (a number printed in a supplementary file, which may have a reference list of its own: not looked up in the article's list); conditions: cited from earlier work
[5] = test system: panel of 183 kinases, including MEK5, CRAF, BRAF, ERK1, and ERK2; set-up: method as in ref 18 (a number printed in a supplementary file, which may have a reference list of its own: not looked up in the article's list); conditions: cited from earlier work
[6] = test system: BRAF-mutant Colo205, A375P F11s, and HT-29 human tumor xenograft; conditions: 0.3 mg/kg; cited from earlier work
A549 xenograft = test system: A549 xenograft; set-up: method as in ref 17 (a number printed in a supplementary file, which may have a reference list of its own: not looked up in the article's list); conditions: cited from earlier work
[7] = test system: PC3, BxPC3, and BT474 xenograft lines; conditions: no tumor regressions; cited from earlier work
[8] = test system: patients with solid tumors or lymphoma; set-up: method as in ref 20 (a number printed in a supplementary file, which may have a reference list of its own: not looked up in the article's list); conditions: cited from earlier work
pERK, Ki67, and p27 = test system: pERK, Ki67, and p27; set-up: method as in ref 19 (a number printed in a supplementary file, which may have a reference list of its own: not looked up in the article's list); conditions: 2 mg QD, cited from earlier work
CYP enzymes = conditions: cited from earlier work
[9] = test system: untreated pancreatic cancer; set-up: method as in ref 25 (a number printed in a supplementary file, which may have a reference list of its own: not looked up in the article's list); conditions: gemcitabine plus trametinib 2 mg QD; cited from earlier work
[10] = test system: CYP enzymes; BCRP, MRP2, OATP1B1, OATP1B3, OATP2B1, OCT1, MATE1, P-gp, BSEP; conditions: cited from earlier work
CYP 2B6 and 3A4 = conditions: cited from earlier work
clinical = conditions: human, 2 mg
[11] = test system: patients with advanced melanoma; conditions: cited from earlier work
[12] = test system: patients in clinical trials of trametinib; conditions: cited from earlier work
[13] = 2 mg monotherapy, 96 total patients

SMILES: CC(=O)Nc1cccc(-n2c(=O)n(C3CC3)c(=O)c3c(Nc4ccc(I)cc4F)n(C)c(=O)c(C)c32)c1 [Trametinib, equimolecular combination of acetamide, N-[3-[3-cyclopropyl-5-[(2-fluoro-4-iodophenyl)amino]-3,4,6,7-tetrahydro6,8-dimethyl-2,4,7-trioxopyrido[4,3-d]pyrimidin-1(2H)-yl]phenyl] with 1,1’-sulfinylbis[methane]]
- CLssF, Geo mean (%CV) ([1]; Mild (n = 6)): 5680.0 (45.5) mL/hr
- CLssF, Mean (±SD) ([1]; Mild (n = 6)): 6200.0 (±2818.6) mL/hr
- Cavg, Geo mean (%CV) ([1]; Mild (n = 6)): 14.7 (51.9) ng/mL
- Cavg, Mean (±SD) ([1]; Mild (n = 6)): 16.2 (±8.4) ng/mL
- Cmin, Geo mean (%CV) ([1]; Mild (n = 6)): 10.8 (57.3) ng/mL
- Cmin, Mean (±SD) ([1]; Mild (n = 6)): 12.1 (±7.0) ng/mL
- CLssF, Geo mean (%CV) ([1]; Mod (n = 3)): 6431.6 (8.4) mL/hr
- CLssF, Mean (±SD) ([1]; Mod (n = 3)): 6446.4(±542.6) mL/hr
- Cavg, Geo mean (%CV) ([1]; Mod (n = 3)): 13.0 (8.1) ng/mL
- Cavg, Mean (±SD) ([1]; Mod (n = 3)): 13.0 (±1.1) ng/mL
- Cmin, Geo mean (%CV) ([1]; Mod (n = 3)): 10.4 (22.4) ng/mL
- Cmin, Mean (±SD) ([1]; Mod (n = 3)): 10.5 (±2.4) ng/mL
- CLssF, Geo mean (%CV) ([1]; Norm (n = 10)): 4449.0 (36.0) mL/hr
- CLssF, Mean (±SD) ([1]; Norm (n = 10)): 4675.0 (±1683.6) mL/hr
- Cavg, Geo mean (%CV) ([1]; Norm (n = 10)): 18.7 (28.1) ng/mL
- Cavg, Mean (±SD) ([1]; Norm (n = 10)): 19.5 (±5.5) ng/mL
- Cmin, Geo mean (%CV) ([1]; Norm (n = 10)): 14.4 (29.8) ng/mL
- Cmin, Mean (±SD) ([1]; Norm (n = 10)): 15.1 (±4.5) ng/mL
- CLssF, Geo mean (%CV) ([1]; Sev (n = 3)): 8736.3 (36.5) mL/hr
- CLssF, Mean (±SD) ([1]; Sev (n = 3)): 9141.3 (±3337.1) mL/hr
- Cavg, Geo mean (%CV) ([1]; Sev (n = 3)): 9.5 (36.4) ng/mL
- Cavg, Mean (±SD) ([1]; Sev (n = 3)): 10.0 (±3.6) ng/mL
- Cmin, Geo mean (%CV) ([1]; Sev (n = 3)): 7.6 (32.3) ng/mL
- Cmin, Mean (±SD) ([1]; Sev (n = 3)): 7.9 (±2.5) ng/mL
- differences of PK parameters (Cmax, Cmin, Cavg, AUC0 − 24) between hepatic function groups ([1]; ANOVA): no significant differences; also recorded: not statistically different
- excreted in the feces [2]: ≥ 81%
- excreted in urine [2]: ≤ 19%
- difference in exposure, mild hepatic impairment vs normal hepatic function ([3]; 64 ([…]) subjects with mild hepatic impairment (NCI classification)): 2%
- oral clearance and exposure, mild hepatic impairment vs normal hepatic function ([3]; population PK analysis): not significantly different
- IC50 (MEK1): 0.7 nM
- IC50 [4]: 0.6 nM
- IC50 (pMEK1 kinase activity): 13 nM
- specificity against a panel of 183 kinases [5]: specificity of trametinib was confirmed
- tumor regression in the Colo205 model [6]: tumor regression was observed
- TGI (A549 xenograft): 75%
- TGI [7]: 44-46%
- MTD [8]: 3 mg QD
- recommended phase 2 dose (RP2D) [8]: 2 mg QD
- median inhibition of pERK (pERK, Ki67, and p27; BRAF or NRAS mutation-positive metastatic melanoma): 62%
- median increase in p27 (pERK, Ki67, and p27): 175%
- median inhibition of Ki67 (pERK, Ki67, and p27): 83%
- inhibitor of CYP 1A2, 2A6, 2B6, 2C9, 2C19, 2D6 and 3A4 (CYP enzymes): not an inhibitor
- inhibitor of CYP1A2, CYP2A6, CYP2B6, CYP2D6, and CYP3A4 (CYP enzymes; in vitro studies): not an inhibitor
- inhibitor of CYP 2C8 (CYP enzymes; in vitro): in vitro inhibitor
- Median OS [9]: 8.4 months
- ORR [9]: 22%
- median PFS [9]: 16 weeks
- median duration of responses [9]: 23.9 weeks
- permeability [10]: high permeability
- substrate of CYP enzymes ([10]; in vitro): not a substrate
- substrate of human BCRP, MRP2, OATP1B1, OATP1B3, OATP2B1, OCT1 or MATE1 transporters ([10]; in vitro): not a substrate
- substrate for P-gp and BSEP ([10]; not expected to be clinically relevant): substrate
- CYP 2B6 and 3A4 inducer (CYP 2B6 and 3A4): weak
- Cmax (clinical; in vivo): 27.6 ng/mL
- AUC(0-t) (clinical; plasma, oral, AUC0 − 24, Geo mean (%CV), Mild (n = 6), dose normalized to 2 mg): 352 ng·h/mL
- AUC(0-t) (clinical; plasma, oral, AUC0 − 24, Geo mean (%CV), Mod (n = 3), dose normalized to 2 mg): 311 ng·h/mL
- AUC(0-t) (clinical; plasma, oral, AUC0 − 24, Geo mean (%CV), Sev (n = 3), dose normalized to 2 mg): 229 ng·h/mL
- AUC(0-t) (clinical; plasma, oral, AUC0 − 24, Mean (±SD), Mild (n = 6), dose normalized to 2 mg): 388 ng·h/mL
- AUC(0-t) (clinical; plasma, oral, AUC0 − 24, Mean (±SD), Mod (n = 3), dose normalized to 2 mg): 312 ng·h/mL
- AUC(0-t) (clinical; plasma, oral, AUC0 − 24, Mean (±SD), Norm (n = 10), dose normalized to 2 mg): 469 ng·h/mL
- AUC(0-t) (clinical; plasma, oral, AUC0 − 24, Mean (±SD), Sev (n = 3), dose normalized to 2 mg): 240 ng·h/mL
- Cmax (clinical; plasma, oral, Cmax, Geo mean (%CV), Mild (n = 6), dose normalized to 2 mg): 26.2 ng/mL
- Cmax (clinical; plasma, oral, Cmax, Geo mean (%CV), Mod (n = 3), dose normalized to 2 mg): 16.8 ng/mL
- Cmax (clinical; plasma, oral, Cmax, Geo mean (%CV), Norm (n = 10), dose normalized to 2 mg): 26.2 ng/mL
- Cmax (clinical; plasma, oral, Cmax, Geo mean (%CV), Sev (n = 3), dose normalized to 2 mg): 15.3 ng/mL
- Cmax (clinical; plasma, oral, Cmax, Mean (±SD), Mild (n = 6), dose normalized to 2 mg): 29.5 ng/mL
- Cmax (clinical; plasma, oral, Cmax, Mean (±SD), Mod (n = 3), dose normalized to 2 mg): 16.9 ng/mL
- Cardiomyopathy resolved ([11]; 10 of 14 patients): 71%
- Pruritis ([11]; All Grades): 10%
- Stomatitis ([11]; All Grades): 15%
- Pruritis ([11]; Grades 3 and 4): 2%
- Stomatitis ([11]; Grades 3 and 4): 2%
- Dose reduction required for skin toxicities ([11]; in vivo): 12%
- Severe skin toxicity ([11]; in vivo): 12%
- overall incidence of skin toxicity ([11]; in vivo): 87%
- permanent discontinuation for skin toxicities ([11]; in vivo): 1%
- median time to onset of skin toxicity ([11]; range: 1 to 221 days): 15 days
- median time to resolution of skin toxicity ([11]; range: 1 to 282 days): 48 days
- grade 4 rash AE ([12]; 2 mg monotherapy, five studies): four patients
- LFT changes grade 3 events [12, 13]: 26
- LFT changes grade 4 events [12, 13]: 6 patients
- grade 1 or 2 pneumonitis ([12]; 2 mg monotherapy): three subjects
- grade 3 diarrhea ([12]; 2 mg monotherapy): 17 patients
- grade 3 pneumonitis ([12]; 2 mg monotherapy): six
- grade 3 visual disorders ([12]; 2 mg monotherapy): six patients
- grade 4 diarrhea ([12]; 2 mg monotherapy): none
- grade 4 visual disorder ([12]; 2 mg monotherapy): one patient
- cases of RPED ([12]; entire trametinib program as of 23 June 2013, monotherapy or combination): 14 cases
- cases of RPED ([12]; integrated safety population, 2 mg once daily, five studies): five cases
